The values below come from ChEMBL document CHEMBL3826968, “Glycine Transporter 1 Inhibitors and the Promise of a New Schizophrenia Therapy” (ACS Med Chem Lett, 2016).

The structures appear in SMILES notation.

As usually defined, the Ki is the dissociation constant of the complex between target and ligand, obtained from inhibition or displacement.

The target in the test is T1, Sodium- and chloride-dependent glycine transporter 1 (Homo sapiens, UniProt P48067).
T1 sequence (P48067 whole entry): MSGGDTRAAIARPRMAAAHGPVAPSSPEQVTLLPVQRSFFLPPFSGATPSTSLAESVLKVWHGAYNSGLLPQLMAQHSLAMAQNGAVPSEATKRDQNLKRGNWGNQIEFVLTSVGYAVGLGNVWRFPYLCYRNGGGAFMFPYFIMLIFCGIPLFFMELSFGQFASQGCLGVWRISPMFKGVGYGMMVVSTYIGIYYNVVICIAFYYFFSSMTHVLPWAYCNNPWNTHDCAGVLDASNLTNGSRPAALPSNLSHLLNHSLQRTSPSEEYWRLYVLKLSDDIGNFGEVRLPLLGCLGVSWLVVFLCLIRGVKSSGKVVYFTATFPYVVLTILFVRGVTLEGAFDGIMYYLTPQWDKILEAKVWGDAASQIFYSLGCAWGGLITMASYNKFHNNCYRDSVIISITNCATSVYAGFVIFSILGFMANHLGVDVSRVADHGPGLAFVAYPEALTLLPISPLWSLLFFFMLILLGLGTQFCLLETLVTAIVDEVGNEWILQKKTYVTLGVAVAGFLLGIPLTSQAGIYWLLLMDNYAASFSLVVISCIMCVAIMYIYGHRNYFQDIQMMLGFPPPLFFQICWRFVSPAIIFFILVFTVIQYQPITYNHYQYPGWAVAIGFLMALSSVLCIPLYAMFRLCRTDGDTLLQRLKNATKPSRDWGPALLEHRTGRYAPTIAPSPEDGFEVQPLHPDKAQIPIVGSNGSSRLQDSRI
Briefly: Displacement of [3H](R)-NPTS or [3H]N-methyl-SSR504734 from recombinant human glycine transporter type-1 isoform C expressed in CHO cell membrane incubated for 1 hr by liquid scintillation spectrometry. Format: cell membranes.
For the molecule `Cn1cc(S(=O)(=O)N2CC(c3ccc(F)cc3)C(c3cccc(C(F)(F)F)c3)=N2)nn1` (stereo not drawn), the Ki is at most 10 µM.

`Cn1cnc(S(=O)(=O)N2CC(c3ccc(Cl)cc3)C(c3ccccc3)=N2)c1` (stereo not drawn): the Ki was at most 1 µM.

For `Cn1cc(S(=O)(=O)N2CC(c3ccccc3)C(c3ccccn3)=N2)cn1` (stereo not drawn), the Ki is at least 10 µM.
